One assay concerns RAW264.7 cells. Nature of the assay: eCIRP-induced cytokine release in RAW264.7 cells (ELISA of supernatants). It counts as cell-based, mouse. Conditions: RAW264.7, rmCIRP 1 μg/mL, 4 hours, vs rmCIRP alone. As for the experimental part:
FIG. 2. Effects of MOP peptides on TNFα levels. RAW264.7 macrophages were cultured and treated with either volume-equivalent PBS, recombinant murine (rm) CIRP (eCIRP; 1 μg/mL), or rmCIRP with each respective peptide (10 μg/mL). After 4 hours, cell supernatants were assessed for TNFα levels by ELISA. Experiments were performed 3 times, and all data were used for analysis. Data are expressed as mean±SEM and compared by one-way ANOVA and SNK test. *p<0.05 vs. PBS, #p<0.05 vs. eCIRP.
FIG. 4. eCIRP-induced inflammation is attenuated by MOP3. RAW264.7 cells were treated according to respective groups: PBS (volume equivalent), rmCIRP (1 μg/mL), or rmCIRP with MOP3 at increasing doses. After 4 hours, cell supernatants were analyzed for TNFα levels by ELISA. Experiments were performed 3 times, and all data were used for analysis. Data are expressed as mean #SEM and compared by one-way ANOVA and SNK test. *p<0.05 vs. PBS, #p<0.05 vs. eCIRP.
(§1) Computational modeling was used to determine the likely domain of MFG-E8's binding to eCIRP. The known amino acid (AA) sequence of this domain was used to develop and test potential therapeutic peptides. An MFG-E8 derived oligopeptide, MOP3, was developed based on 15 AA from MFG-E8 discoidin 2 domain (mimicking MFG-E8's C-terminal) and tagged with the 3 AA, RGD, (mimicking MFG-E8's binding capacity for the integrin receptor at the N-terminal). Binding of MOP3 to CIRP was quantified using Surface Plasmon Resonance (SPR) analysis. Macrophages (RAW264.7 cells) were treated with FITC-recombinant mouse (rm)-CIRP or co-incubated MOP3 and FITC-rmCIRP with and without a. Br-integrin Ab. After 1 h, cells were fixed and analyzed for intracellular FITC-rmCIRP by flow cytometry. Macrophages were stimulated with rmCIRP or co-incubated mixture of MOP3 and rmCIRP. After 4 h, cell culture supernatants were analyzed for inflammatory cytokine, TNFα.
Mouse macrophage cell line, RAW264.7 cells were obtained from American Type Culture Collection (ATCC) and cultured in DMEM media with 10% FBS, 1% penicillin and streptomycin, and 1% glutamine. Cells were kept in 37° C. incubator under humidified conditions containing 5% CO2. […]
The mouse macrophage cell culture supernatants were analyzed for cytokine levels using ELISA kits (BD Biosciences, CA). […] TNF-α and IL-6 levels were measured in cell supernatants by ELISA in accordance with respective manufacturers' instructions (BD Biosciences, CA). Blood was collected, centrifuged at 4,000 RPM for 10 minutes, and sera was separated and analyzed for cytokine levels using ELISA kits (BD Biosciences, CA). TNF-α and IL-6 levels in the serum were measured by ELISA in accordance with respective manufacturers' instructions.

A further assay concerns RAW264.7 macrophages. The assay can be described thus: Intracellular uptake of FITC-rmCIRP by macrophages (flow cytometry, confocal microscopy). It counts as cell-based, mouse. Conditions: for intracellular FITC-rmCIRP uptake (flow cytometry): RAW264.7, FITC-rmCIRP 1 μg/mL co-incubated with test substance (peptide 10 μg/mL), 1 hour, vs FITC-rmCIRP alone. The protocol: FIG. 3. Effects of MOP peptides MOP-3, MOP-8 and MOP-14 on eCIRP. Flow cytometry experiment whereby RAW264.7 macrophages were treated for 1 hour according to respective group: PBS (volume-equivalent), FITC-rmCIRP (1 μg/mL), or a mixture of FITC-rmCIRP (1 μg/mL) with each respective peptide (10 μg/mL) after co-incubating for 30 minutes. Intracellular FITC-rmCIRP was analyzed by flow cytometry. Median fluorescence intensity (MFI) reported as percentage relative to PBS-treated RAW264.7 cells. Data from two independent experiments are expressed as mean±SEM and compared by one-way ANOVA and SNK test. *p<0.05 vs. PBS, #p<0.05 vs. eCIRP.
as §1
Mouse macrophage cell line, RAW264.7 cells were obtained from American Type Culture Collection (ATCC) and cultured in DMEM media with 10% FBS, 1% penicillin and streptomycin, and 1% glutamine. Cells were kept in 37° C. incubator under humidified conditions containing 5% CO2.
rmCIRP was labeled using a FITC Conjugation Kit (Abcam, ab188285), and rmMFG-E8 was labeled using Alexa Fluor Conjugation Kit (Abcam, ab269821), both according to respective manufacturer's instructions.
In order to visualize cellular uptake, we initially utilized TRITC-BSA as an internal probe, as BSA is taken up into cells primarily by endocytosis and retained intracellularly after fixation (27, 28). For further visualization of intracellular localization, we utilized LAMP1 primary antibody (as it is distributed among endolysosomal organelles and serves as a marker for lysosomal compartments) (29), and utilized lysotracker in live cell experiments (as it allows for imaging of dynamics of lysosome vesicle movements) (30). RAW264.7 cells were treated in various conditions with rmCIRP, rmMFG-E8, and inhibitory antibody against auß3-integrin (Bioss antibodies, bs-1310R) for 4 hours. Cells were fixed with 4% paraformaldehyde (PFA), washed with 1×PBS, permeabilized using 0.3% Triton x100, and blocked using 5% BSA 100 mM Glycine in PBS prior to primary antibody treatment. After incubation with secondary antibodies, cells were washed and mounted with ProLong Gold antifade reagent (Invitrogen). For live cell imaging, cells remained in treatment conditions and were imaged under CO2. Staining procedures were performed according to the manufacturers' instructions utilizing respective fluorescent dyes and probes. For all imaging, confocal microscopy images were obtained using a Zeiss LSM880 confocal microscope equipped with a 63× objective. Images were quantified and analyzed using Image J, FIJI.(31) Flow cytometry.
To detect changes in internalized eCIRP in the presence of MFG-E8, RAW264.7 cells were seeded in 12-well plates (approximately 3×10^5 cells/well) and were treated with FITC-eCIRP. Treatment groups consisted of FITC-eCIRP, FITC-eCIRP with MFG-E8, FITC-eCIRP with MFG-E8 and αvβ3-integrin antibody (0.5 μg/mL), or FITC-eCIRP with MFG-E8 and IgG isotype (0.5 μg/mL). Similar experiments were conducted with MOP3 instead of MFG-E8 in parallel groups. […]
(In general: In flow cytometry, cells or beads pass a laser one at a time.)

This is an account of results in patent publication US20240197828A1, “Chimeric molecule to treat sepsis and other inflammatory conditions” (THE FEINSTEIN INSTITUTES FOR MEDICAL RESEARCH, priority 2022, published 2024).

Entries after “also recorded” stand apart in the source; their conditions may differ. Residues, ends and D or L forms follow the SMILES beside them.

Turning to `CC(C)C[C@H](NC(=O)[C@H](CC(N)=O)NC(=O)[C@H](Cc1c[nH]c2ccccc12)NC(=O)[C@@H](NC(=O)[C@H](CCCCN)NC(=O)[C@H](Cc1ccc(O)cc1)NC(=O)[C@H](CO)NC(=O)[C@H](CO)NC(=O)[C@H](CO)NC(=O)[C@H](CC(=O)O)NC(=O)CNC(=O)[C@@H](N)CCCNC(=N)N)[C@@H](C)O)C(=O)N[C@@H](CCCNC(=N)N)C(=O)N[C@@H](C)C(=O)N[C@@H](Cc1ccccc1)C(=O)NCC(=O)N[C@@H](Cc1c[nH]c2ccccc12)C(=O)N[C@@H](Cc1ccc(O)cc1)C(=O)O` [MOP3, RGDSSSYKTWNLRAFGWY] (H-RGDSSSYKTWNLRAFGWY-OH; N-terminus and C-terminus assumed), the results for the “TNFα levels in cell supernatants” value with RAW264.7 cells and in the assay on RAW264.7 cells (listed as peptide-3) were “strong inhibitory effect; also recorded: significantly decreased TNFα levels” and “capable of attenuating TNFα release”, respectively. In addition, the results for the “intracellular FITC-rmCIRP uptake (flow cytometry)” value in the assay on RAW264.7 macrophages and in the assay with RAW264.7 macrophages (listed as peptide-3) were “increased intracellular fluorescence; also recorded: significantly increased intracellular rmCIRP uptake” and “could increase intracellular uptake of FITC-eCIRP”, respectively. Further, the “intracellular FITC-rmCIRP uptake with αvβ3-integrin blocking antibody (flow cytometry)” value in the assay with RAW264.7 macrophages (RAW264.7, αvβ3-integrin antibody 0.5 μg/mL) is listed as “prevented”.
